Here are results for one compound from patent US11179722B2, “Microfluidic method for handling microdrops” (ECOLE POLYTECHNIQUE, priority 2016, dated 2021).

The data set relates to rat hepatoma, H4IIEC3 cells. The data set is classed as cell-based. On the procedure:
An experiment was conducted to determine, in a single microfluidic system, the concentration beyond which a medicinal product (acetaminophen) becomes toxic to liver cells (rat hepatoma, H4IIEC3 cells).
The microfluidic chamber used containing 252 identical traps on 2 cm^2 in FIGS. 5A and 5B.
The first microdrops 20 of agarose that is liquid at 37° C. (ultra-low gelling), at 0.9 wt % diluted in culture medium containing H4IIEC3 cells, were trapped in the first trapping zones 15, the second trapping zone 18 remaining free. The first microdrops 20 were then cultured for one day to allow the cells to adhere to one another to form a spheroid by first microdrops 20. […]
By taking a fluorescence image before fusion, the different levels of fluorescence that are correlated with the concentration of medicinal product in the second microdrops 25 could be identified. […]
The chamber was perfused with HFE-7500 (fluorinated oil) containing 1H,1H,2H,2H-perfluorooctan-1-ol at a concentration of 20 vol % in order to fuse the microdrops in contact. […] By taking an image of the final matrix, the spheroids whose viability was affected most could be determined. […] Thus, correlating the result for viability and the concentration of acetaminophen in the second microdrops, it could be determined that the range of toxicity of acetaminophen on these hepatic cells is between 10 and 30 mmol/L for a static exposure of 1 day.

SMILES strings stand for the structures.

On to `CC(=O)Nc1ccc(O)cc1` [acetaminophen], for which the “cell survival as a function of acetaminophen concentration” value was “the higher the concentration of acetaminophen, the fewer cells survive”. In addition, the “range of toxicity of acetaminophen on these hepatic cells” value (rat, 1 day) was 10 and 30.
